Legend:
[1] = target: aphid peptidyl-dipeptidase A (Aphis gossypii, UniProt A0A2K9Y4D7); assay: Inhibition of aphid peptidyl-dipeptidase A activity, in vitro, substrate Abz-Gly-p-nitro-Phe-Pro-OH; format: biochemical, cotton aphid (Aphis gossypii); settings: for Activity of inhibiting peptidyl-dipeptidase A activity (inhibition degree (%) at 10 μM addition) / inhibition at 10 µM: test compound in DMSO, final concentration 10 μM, relative to DMSO control; for inhibition at 10 µM: read-out: Activity of inhibiting peptidyl-dipeptidase A activity (inhibition degree (%) at 10 μM addition); for IC50: concentrations 100 to 0.03 μM, calculated with XL fit, read-out: Activity of inhibiting peptidyl-dipeptidase A activity IC50, (μM))
aphid peptidyl-dipeptidase A, sequence (A0A2K9Y4D7 entry or part of it): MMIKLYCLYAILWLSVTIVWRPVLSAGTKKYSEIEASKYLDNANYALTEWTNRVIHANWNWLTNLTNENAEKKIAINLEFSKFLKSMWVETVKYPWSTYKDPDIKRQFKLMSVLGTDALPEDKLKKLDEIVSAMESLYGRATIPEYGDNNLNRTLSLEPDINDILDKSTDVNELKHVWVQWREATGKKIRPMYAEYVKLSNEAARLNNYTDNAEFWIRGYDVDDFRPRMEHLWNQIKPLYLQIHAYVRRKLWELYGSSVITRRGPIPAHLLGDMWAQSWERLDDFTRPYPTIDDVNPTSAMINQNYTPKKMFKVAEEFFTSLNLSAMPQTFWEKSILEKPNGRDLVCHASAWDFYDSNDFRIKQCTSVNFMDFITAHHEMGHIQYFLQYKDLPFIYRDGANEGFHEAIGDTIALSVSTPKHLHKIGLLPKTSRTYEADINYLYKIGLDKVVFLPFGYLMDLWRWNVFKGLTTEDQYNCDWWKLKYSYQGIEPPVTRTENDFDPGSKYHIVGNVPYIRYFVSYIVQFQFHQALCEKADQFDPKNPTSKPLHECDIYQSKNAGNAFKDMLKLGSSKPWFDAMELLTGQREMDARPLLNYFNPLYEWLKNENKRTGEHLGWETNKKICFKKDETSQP
Method: Selection of a compound which modulates the activity of a peptidyl-dipeptidase A was performed in a system where the activity of a peptidyl-dipeptidase A which is modulated by adding a test compound to an in vitro reaction system using the aphid peptidyl-dipeptidase A prepared in Example 7 is measured and evaluated.
Measurement of the activity of the aphid peptidyl-dipeptidase A was performed according to a method using Abz-Gly-p-nitro-Phe-Pro-OH (manufactured by Bachem, M-1100) as a substrate, as described in the previously reported article (Carmel et al. (1979) Clinica Chimica Acta, 93, 215-220).
For measuring the activity, the activity of the aphid peptidyl-dipeptidase A was measured when a test compound dissolved in DMSO was contained to a final concentration of 10 μM. In addition, the activity of the aphid peptidyl-dipeptidase A was measured when DMSO was contained in place of a test compound. Then, a ratio (%) of a measured value of the activity of the aphid peptidyl-dipeptidase A when a test compound dissolved in DMSO was contained, relative to a measured value of the activity of aphid peptidyl-dipeptidase A when DMSO was contained in place of the test compound was calculated, and a value obtained by subtracting the calculated value from 100% was adopted as an inhibition degree (%).
The activity of aphid peptidyl-dipeptidase A was measured when a test compound dissolved in DMSO was contained to a final concentration of each concentration of 100 μM, 30 μM, 10 μM, 3 μM, 1 μM, 0.3 μM, 0.1 μM or 0.03 μM.

[2] = system: Aphis gossypil; assay: Pesticidal activity test, artificial feed rearing, surviving aphids after six days; format: in vivo
Method: A sterilized artificial feed having the following composition (Table 3) was prepared. […] Controlling value (%)={1−(Cb×Tai)/(Cai×Tb)}×100 Letters in the equation represent the following meanings.

[3] = test compound dissolved in DMSO to a final concentration of 640 μM, added at 0.5% volume of artificial feed, significant controlling value (e.g. 30% or more) = pesticidal activity
[4] = test compound dissolved in DMSO to a final concentration of 50 ppm, otherwise as Example 9

With `CCN(CC)CCO[C@H]1CC[C@@]2(C)C(=CC[C@@H]3[C@@H]2CC[C@]2(C)C(=O)CC[C@@H]32)C1` [3-beta-[2-(diethylamino)ethoxy]androst-5-en-17-one] the “Activity of inhibiting peptidyl-dipeptidase A activity (inhibition degree (%) at 10 μM addition)” value [1] was 17% and the “Determination result of pesticidal activity” value (from here on “Determination result”) [2, 3] was “Presence of pesticidal activity”.

With `CCOC(=O)[C@H](CCc1ccccc1)N[C@@H](C)C(=O)N1CCC[C@H]1C(=O)O` [enalapril] the inhibition at 10 µM [1] was 98% and the “Determination result” value [2, 3] was “Presence of pesticidal activity”.

With `CC12CCC3c4ccc(O)cc4CCC3C1C/C(=C\c1ccc(OC(F)(F)F)cc1)C2=O` (stereo not drawn) [DF15164] the “Determination result” value [2, 4] was “Absence of pesticidal activity”.

For quinapril, the IC50 [1] was 35.8 µM, the “Activity of inhibiting peptidyl-dipeptidase A activity (inhibition degree (%) at 10 μM addition)” value [1] was 15% and the “Determination result” value ([2]; […], significant controlling value (e.g. 30% or more) = pesticidal activity) was “Presence of pesticidal activity”. The “Determination result” value [2, 4] was “Presence of pesticidal activity”.

With `CCOC(=O)[C@H](CCc1ccccc1)N[C@H]1CCc2ccccc2N(CC(=O)O)C1=O` [benazepril] the IC50 [1] was 15.9 µM, the inhibition at 10 µM [1] was 41% and the “Determination result” value [2, 3] was “Presence of pesticidal activity”. For the same compound, the “Determination result” value [2, 4] was “Presence of pesticidal activity”.

With `COC(=O)C(Cc1ccccc1)NC(=O)Nc1n[nH]c(=S)s1` (stereo not drawn) [MMP-2/MMP-3 inhibitor I] the inhibition at 10 µM [1] was 79% and the “Determination result” value [2, 3] was “Presence of pesticidal activity”.

In the case of `CCOC(=O)[C@H](CCc1ccccc1)N[C@@H](C)C(=O)N1[C@H](C(=O)O)C[C@@H]2CCC[C@@H]21` [ramipril], the inhibition at 10 µM [1] is reported as 16% and the “Determination result” value [2, 3] is reported as “Presence of pesticidal activity”.

In the case of `C[C@H](CS)C(=O)N1CCC[C@H]1C(=O)O` [captopril], the inhibition at 10 µM [1] is reported as 99%.

Reference: patent publication US20120258929A1, “AGENT THAT MODULATES PHYSIOLOGICAL CONDITION OF PESTS, INVOLVED IN INSECT PEPTIDYL-DIPEPTIDASE A ACTIVITY” (SUMITOMO CHEMICAL COMPANY, LIMITED, priority 2005, published 2012)
